# Legend:
# GcoA-F169A = GcoA-F169A (Amycolatopsis sp., UniProt P0DPQ7, F169A); assay: Discontinuous HPLC specific activity (aromatic substrate disappearance); assay type: biochemical, Amycolatopsis sp. ATCC 39116; design: GST (N, cleaved yes); made in house; host or cells: E. coli Rosetta 2 (DE3); details: 300 μM substrate, 300 μM NADH, 0.2 μM F169A/GcoB
# Description: HPLC was used to verify the O-demethylated product of GcoA-F169A GcoA/GcoB with guaiacol, syringol, or 3MC. In addition, discontinuous HPLC was used to determine the specific activity of aromatic product disappearance. Details are provided in SI Appendix. […]
# vi = Vmax[S]/(KM + [S]) (4)
# Determination of substrate dissociation constants (KD) with F169A. 0-60 µM of guaiacol, syringol, or 3MC in 0.5 or 1 µM aliquots, were titrated into a cuvette containing 3 µM F169A GcoA in 25 mM HEPES, 50 mM NaCl, pH 7.5. The spectrum after each substrate addition was recorded, beginning with no substrate bound. The solution reached equilibrium before the next addition. A difference spectrum was made to illustrate the shift from a low-spin aquo-heme complex to the high-spin substrate-bound complex (spectral […]
# shift from 417 nm to 388 nm). […] The absorbance […]
# at 388 nm (Abs388-417 nm) was plotted as a function of [substrate], yielding a quadratic curve that was fit to equation (5) to determine […]
# Formaldehyde determination. A colorimetric assay using tryptophan can be used to quantify the amount of formaldehyde produced in F169 GcoA/B reactions with guaiacol, syringol, or 3MC. […] 200 μM NADH was added and the background rate recorded. 100 (guaiacol, syringol, or 3MC) or 200 (syringol) μM of substrate was then added and the reaction monitored until there was no more change, due to either substrate, NADH or O2 depletion, whichever occurred first. […] After cooling, the absorbance was read at 575 nm and the [formaldehyde] calculated by using ε575 nm = 4.2 mM-1 cm-1, obtained with formaldehyde as a standard (1). […]
# HPLC for product identification and specific activity measurement. […] Integrated intensities vs [standards] were plotted and the resulting standard curves used to quantify the reactants and products.
# For specific activity determination, 300 μM guaiacol, syringol, or 3MC were added from 0.1 M DMSO stocks to air saturated buffer (25 mM HEPES, 50 mM NaCl, pH 7.5), with a final volume of 1 mL. The [analyte] was measured via the above HPLC method. […]
# WT GcoA = target: T1, WT GcoA (Amycolatopsis sp., UniProt P0DPQ7); assay: biochemical; assay type: binding, Amycolatopsis sp. ATCC 39116; details: for %Fe(III) spin state conversion: WT GcoA, final high-spin (388 nm) divided by starting low-spin (417 nm)
# T1 construct: GST (N, cleaved yes); made in house; host or cells: E. coli Rosetta 2 (DE3)
# T1 sequence (P0DPQ7 whole entry): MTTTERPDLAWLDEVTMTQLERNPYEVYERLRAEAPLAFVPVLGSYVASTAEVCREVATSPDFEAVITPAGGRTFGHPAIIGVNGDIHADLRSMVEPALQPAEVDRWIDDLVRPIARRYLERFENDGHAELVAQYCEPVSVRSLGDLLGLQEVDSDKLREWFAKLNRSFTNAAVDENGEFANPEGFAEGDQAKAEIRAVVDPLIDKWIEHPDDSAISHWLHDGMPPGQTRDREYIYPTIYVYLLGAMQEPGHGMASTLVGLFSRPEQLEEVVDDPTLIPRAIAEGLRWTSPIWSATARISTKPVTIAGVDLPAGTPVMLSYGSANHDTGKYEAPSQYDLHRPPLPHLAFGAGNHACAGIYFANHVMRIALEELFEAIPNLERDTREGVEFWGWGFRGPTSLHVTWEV
# GcoA-F169A, sequence (P0DPQ7 whole entry F169A): as the sequence (P0DPQ7 whole entry) above, with F169A counted along it
Structure (SMILES),aromatic substrate disappearance (specific activity) (GcoA-F169A) [μM s-1 μmol F169A-1],%Fe(III) spin state conversion (WT GcoA) [%],Kd (WT GcoA) [nM]
"COc1cccc(O)c1O [3MC, 3-methoxycatechol]",2.6 ± 0.3,62 ± 0.01,–
"COc1ccccc1O [guaiacol, 2-methoxyphenol]",5.6 ± 0.3,87 ± 1,6.5 ± 2
"COc1cccc(OC)c1O [syringol, 2,6-dimethoxyphenol]",4.1 ± 0.3,56 ± 2,–

# From paper PMC6628648, “Enabling microbial syringol conversion through structure-guided protein engineering” (Proceedings of the National Academy of Sciences of the …, 2019)
